# Source: the OPERA property sets (Mansouri et al. 2018)
# Conditions: not given
Structure (SMILES),ready biodegradability,melting point [°C],log10 vapour pressure (mmHg),boiling point [°C],log10 Koc (L/kg),log10 Koa
CCC(CC)C(=O)OCCOCCOCCOC(=O)C(CC)CC,readily biodegradable,–,–,–,–,–
O=C(O)c1ccc(Cl)c([N+](=O)[O-])c1,–,183,–,–,–,–
CCNc1cccc(O)c1,–,62,–,–,–,–
c1ccc2c(c1)CCc1ccccc1-2,–,34.5,-3.22,–,–,–
ClC#CCl,–,-66,–,33,–,–
CC(=O)C=Cc1ccccc1,not readily biodegradable,41.8,-1.91,262,–,–
C1CCc2nnnn2CC1,–,59.5,–,–,–,–
CC[C@]1(O)CC[C@H]2[C@@H]3CCC4=CC(=O)CC[C@@H]4[C@H]3CC[C@@]21C,–,140,–,–,–,–
COc1cc(Cl)c(OC)cc1Cl,–,134,-2.52,268,3.1,–
CCCCC(CC)COP(=O)(O)OCC(CC)CCCC (centres undefined),not readily biodegradable,-50,–,–,–,–
S=C(Nc1ccccc1)c1ccccc1,–,102,–,–,–,–
CCOc1ccc(N)c(N)c1,–,71.5,–,295,–,–
CCC(COC(=O)c1cc(OC)c(OC)c(OC)c1)(c1ccccc1)N(C)C (centres undefined),–,79,–,–,–,–
CC(C)Oc1ccccc1,–,-33,–,177,–,–
CC(C)N1C(=O)c2ccccc2NS1(=O)=O,–,138,–,–,1.52,–
Cc1cc(F)ccc1N,–,14.2,–,–,–,–
Clc1ccc(Oc2cccc(Cl)c2)cc1,–,–,-3.19,–,–,–
Oc1ccccc1O,readily biodegradable,105,-2.44,246,–,–
NC(=O)c1ccccc1F,–,118,–,–,–,–

Structure (SMILES),ready biodegradability,melting point [°C],log10 vapour pressure (mmHg),boiling point [°C],log10 Koc (L/kg),log10 Koa
CNCCN,–,–,–,115,–,–
CON=O,–,-16,–,-12,–,–
CC(=O)NC(CCC(N)=O)C(=O)O (centres undefined),–,197,–,–,–,–
Oc1ccc(-c2ccccc2)cc1,not readily biodegradable,166,–,305,–,–
Cn1cccn1,–,–,–,127,–,–
C#CC,–,-103,3.63,-23.2,–,–
Clc1cc(Cl)c(-c2c(Cl)ccc(Cl)c2Cl)cc1Cl,–,–,-5.07,–,5.79,9.27
NC(=O)NO,–,141,–,–,–,–
C[Si]1(C)O[Si](C)(C)O[Si](C)(C)O1,–,64.5,0.548,134,–,–
Nc1c([N+](=O)[O-])ccc(Oc2ccccc2)c1Cl,–,81.5,-6.92,–,–,–
CCOC(=O)c1ccccc1C(=O)OCC,not readily biodegradable,-40.5,-2.68,295,1.84,–
FC(F)(F)C(F)(F)N(C(F)(F)C(F)(F)F)C(F)(F)C(F)(F)F,–,-110,–,70.3,–,–
CSc1ccccc1N,–,–,–,234,–,–
CN(C)c1nc(=O)n(C2CCCCC2)c(=O)n1C,–,116,-6.65,–,1.73,–
O=[N+]([O-])c1ccccc1SSc1ccccc1[N+](=O)[O-],–,196,–,–,–,–
O=C(O)c1cc(O)c2ccccc2n1,–,282,–,–,–,–
C=CCc1cccc2ccccc12,–,–,–,266,–,–
Clc1nc(Cl)c(Cl)c(Cl)c1Cl,–,126,-1.85,–,–,–
CCCCCCC(Cl)Cl,–,–,–,191,–,–

Structure (SMILES),ready biodegradability,melting point [°C],log10 vapour pressure (mmHg),boiling point [°C],log10 Koc (L/kg),log10 Koa
O=C(O)CCCl,–,41,–,156,–,–
C/C=C(\C)C(=O)O[C@H]1C[C@@H](OC(C)=O)[C@@]2(C(=O)OC)CO[C@H]3[C@@H](O)[C@@](C)([C@]45O[C@@]4(C)[C@H]4C[C@@H]5O[C@@H]5OC=C[C@@]54O)[C@H]4[C@]1(CO[C@]4(O)C(=O)OC)[C@@H]32,–,156,–,–,–,–
CCC(=O)Cl,–,-94,–,80,–,–
Cn1c(=O)c2c(ncn2CN2CCOCC2)n(C)c1=O,–,177,–,–,–,–
CCCC(C)C(C)(C)O (centres undefined),–,–,–,160,–,–
COc1cc([C@@H]2c3cc4c(c(O)c3C[C@H]3COC(=O)[C@@H]32)OCO4)cc(OC)c1OC,–,234,–,–,–,–
CC=Cc1ccc2c(c1)OCO2,–,8.2,–,253,–,–
CCC(Oc1ccc(C(C)(C)CC)cc1C(C)(C)CC)C(=O)Nc1ccc(NC(=O)C(F)(F)C(F)(F)C(F)(F)F)c(O)c1 (centres undefined),not readily biodegradable,–,–,–,–,–
Oc1cccc2cccnc12,not readily biodegradable,75.5,-2.78,267,–,–
NCCCN,–,–,–,140,–,–
CC(CC=O)CC(C)(C)C (centres undefined),not readily biodegradable,–,-1.1,173,–,–
CON=C(C)c1cccc(Oc2nc(OC)cc(OC)n2)c1C(=O)OC,–,107,-6.64,–,–,–
Cc1cc(C)c(C)c(O)c1C,–,118,–,247,–,–
Cc1ccc2c(-c3ccccc3)nc(=O)n(C(C)C)c2c1,–,138,–,–,–,–
CCCC(C1CCCCC1)C1CCCCC1,–,-10.5,–,293,–,–
O=C(Nc1ccc([N+](=O)[O-])cc1Cl)c1cc(Cl)ccc1O,not readily biodegradable,230,-10.8,–,3.35,–
CCCCN(CCCC)CCCC,not readily biodegradable,-70,-1.03,216,–,–
CC(=O)CC(=O)Nc1ccc(Cl)cc1,–,132,–,–,–,–

# Same assay, conditions: fish
Structure (SMILES),log10 BCF,log10 biotransformation half-life (days)
CCOP(=S)(OCC)Oc1cc(-c2ccccc2)on1,2.61,1.05
Clc1cc(Cl)c(Oc2cc(Cl)c(Cl)cc2Cl)cc1Cl,–,1.98
Cc1cc(C)c2ccccc2c1,–,0.51
CCCCC(CC)COP(=O)(O)OCC(CC)CCCC (centres undefined),0.64,–
Oc1ccc(-c2ccccc2)cc1,1.59,-0.81
CCCCN(CCCC)CCCC,1.4,–
